ChEMBL document CHEMBL1201862, “PubChem BioAssay data set” (2004)
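Values below derive from 48-hour exposures of cells grown in 96-well plates, with endpoints linearly interpolated between the two concentrations bracketing the appropriate inhibition level. GI50 marks 50% less growth.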 Active and inactive are the calls of the source. Rule as the data show it: active = GI50 up to about 1.1 µM and inactive = higher.

Tests used:
Experiment in all cases: inhibition of tumour cell growth, NCI panel, 48 h
HOP-62 = test system: HOP-62
BT-549 = test system: BT-549
MDA-N = test system: MDA-N
IGROV-1 = test system: IGROV-1
COLO 205 = test system: COLO 205
786-0 = test system: 786-0
NCI-H522 = test system: NCI-H522
M14 = test system: M14
LOX IMVI = test system: LOX IMVI
NCI-H23 = test system: NCI-H23
CAKI-1 = test system: CAKI-1
OVCAR-5 = test system: OVCAR-5
KM12 = test system: KM12
SNB-19 = test system: SNB-19
SNB-75 = test system: SNB-75
HCT-15 = test system: HCT-15
U-251 = test system: U-251
MCF7 = test system: MCF7
MDA-MB-435 = test system: MDA-MB-435
TK-10 = test system: TK-10
DU-145 = test system: DU-145
MOLT-4 = test system: MOLT-4
ACHN = test system: ACHN
A549 = test system: A549
OVCAR-3 = test system: OVCAR-3
EKVX = test system: EKVX
SK-MEL-5 = test system: SK-MEL-5
MDA-MB-231 = test system: MDA-MB-231
SF-539 = test system: SF-539
SK-MEL-2 = test system: SK-MEL-2
HCT-116 = test system: HCT-116
CCRF-CEM = test system: CCRF-CEM
SF-295 = test system: SF-295
SN12C = test system: SN12C
PC-3 = test system: PC-3
RPMI-8226 = test system: RPMI-8226
SW-620 = test system: SW-620
OVCAR-8 = test system: OVCAR-8
NCI/ADR-RES = test system: NCI/ADR-RES
UACC-257 = test system: UACC-257
SK-MEL-28 = test system: SK-MEL-28
SK-OV-3 = test system: SK-OV-3
SF-268 = test system: SF-268
OVCAR-4 = test system: OVCAR-4
NCI-H460 = test system: NCI-H460
SR = test system: SR
T47D = test system: T47D
HT-29 = test system: HT-29
HCC 2998 = test system: HCC 2998
K562 = test system: K562
UO-31 = test system: UO-31
RXF 393 = test system: RXF 393
UACC-62 = test system: UACC-62
Hs-578T = test system: Hs-578T
HOP-92 = test system: HOP-92
NCI-H226 = test system: NCI-H226
A498 = test system: A498
HL-60 = test system: HL-60

SMILES: COc1ccc(N[C@H](CSc2ccc(C)cc2)c2ccc(F)cc2)cc1
- GI50 (HOP-62): > 100 µM (inactive)
- GI50 (BT-549): > 100 µM (inactive)
- GI50 (MDA-N): 71.1 µM (inactive)
- GI50 (IGROV-1): > 100 µM (inactive)
- GI50 (COLO 205): > 100 µM (inactive)
- GI50 (786-0): > 100 µM (inactive)
- GI50 (NCI-H522): 38.9 µM (inactive)
- GI50 (M14): > 100 µM (inactive)
- GI50 (LOX IMVI): 29.4 µM (inactive)
- GI50 (NCI-H23): 39.3 µM (inactive)
- GI50 (CAKI-1): > 100 µM (inactive)
- GI50 (OVCAR-5): > 100 µM (inactive)
- GI50 (KM12): > 100 µM (inactive)
- GI50 (SNB-19): > 100 µM (inactive)
- GI50 (SNB-75): > 100 µM (inactive)
- GI50 (HCT-15): 65.5 µM
- GI50 (U-251): > 100 µM (inactive)
- GI50 (MCF7): 61.8 µM (inactive)
- GI50 (MDA-MB-435): > 100 µM (inactive)
- GI50 (TK-10): > 100 µM (inactive)
- GI50 (DU-145): > 100 µM (inactive)
- GI50 (MOLT-4): 3.23 µM (inactive)
- GI50 (ACHN): > 100 µM (inactive)
- GI50 (A549): 74.6 µM (inactive)
- GI50 (OVCAR-3): > 100 µM (inactive)
- GI50 (EKVX): > 100 µM (inactive)
- GI50 (SK-MEL-5): 57.3 µM (inactive)
- GI50 (MDA-MB-231): > 100 µM (inactive)
- GI50 (SF-539): > 100 µM (inactive)
- GI50 (SK-MEL-2): > 100 µM (inactive)
- GI50 (HCT-116): 45.8 µM (inactive)
- GI50 (CCRF-CEM): > 100 µM (inactive)
- GI50 (SF-295): > 100 µM (inactive)
- GI50 (SN12C): > 100 µM (inactive)
- GI50 (PC-3): > 100 µM (inactive)
- GI50 (RPMI-8226): 23.9 µM (inactive)
- GI50 (SW-620): > 100 µM (inactive)
- GI50 (OVCAR-8): > 100 µM (inactive)
- GI50 (NCI/ADR-RES): > 100 µM (inactive)
- GI50 (UACC-257): 40 µM (inactive)
- GI50 (SK-MEL-28): > 100 µM (inactive)
- GI50 (SK-OV-3): > 100 µM (inactive)
- GI50 (SF-268): > 100 µM (inactive)
- GI50 (OVCAR-4): 67.5 µM (inactive)
- GI50 (NCI-H460): > 100 µM (inactive)
- GI50 (SR): 25.2 µM (inactive)
- GI50 (T47D): 24.6 µM (inactive)
- GI50 (HT-29): > 100 µM (inactive)
- GI50 (HCC 2998): > 100 µM (inactive)
- GI50 (K562): 52 µM (inactive)
- GI50 (UO-31): > 100 µM (inactive)
- GI50 (RXF 393): 68.5 µM (inactive)
- GI50 (UACC-62): 65.8 µM (inactive)

SMILES: COc1cccc(C2c3cc4c(cc3OC(N3CCCC3)C2C)OCO4)c1OC (stereo unspecified)
- GI50 (HOP-62): 8.17 µM (inactive)
- GI50 (MDA-N): 4.76 µM (inactive)
- GI50 (IGROV-1): 2.78 µM (inactive)
- GI50 (COLO 205): 3.46 µM (inactive)
- GI50 (786-0): 3.89 µM (inactive)
- GI50 (NCI-H522): 3.69 µM (inactive)
- GI50 (M14): 9.08 µM (inactive)
- GI50 (LOX IMVI): 1.96 µM (inactive)
- GI50 (NCI-H23): 4.37 µM (inactive)
- GI50 (CAKI-1): 0.561 µM (active)
- GI50 (OVCAR-5): 3.67 µM (inactive)
- GI50 (KM12): 3.08 µM (inactive)
- GI50 (SNB-19): 1.58 µM (inactive)
- GI50 (HCT-15): 2.25 µM
- GI50 (MCF7): 4.58 µM (inactive)
- GI50 (MDA-MB-435): 4.06 µM (inactive)
- GI50 (TK-10): 5.74 µM (inactive)
- GI50 (DU-145): 2.01 µM (inactive)
- GI50 (MOLT-4): 2.77 µM (inactive)
- GI50 (ACHN): 2.49 µM (inactive)
- GI50 (A549): 3.53 µM (inactive)
- GI50 (OVCAR-3): 1.66 µM (inactive)
- GI50 (EKVX): 6.49 µM (inactive)
- GI50 (SK-MEL-5): 2.87 µM (inactive)
- GI50 (SF-539): 3.33 µM (inactive)
- GI50 (SK-MEL-2): 3.89 µM (inactive)
- GI50 (HCT-116): 1.64 µM (inactive)
- GI50 (CCRF-CEM): 2.77 µM (inactive)
- GI50 (SF-295): 1.92 µM (inactive)
- GI50 (SN12C): 3.02 µM (inactive)
- GI50 (PC-3): 4.48 µM (inactive)
- GI50 (RPMI-8226): 3.61 µM (inactive)
- GI50 (Hs-578T): 1.59 µM (inactive)
- GI50 (SW-620): 1.65 µM (inactive)
- GI50 (OVCAR-8): 2.96 µM (inactive)
- GI50 (NCI/ADR-RES): 2.32 µM (inactive)
- GI50 (UACC-257): 1.72 µM (inactive)
- GI50 (SF-268): 2.89 µM (inactive)
- GI50 (NCI-H460): 3.17 µM (inactive)
- GI50 (SR): 3.03 µM (inactive)
- GI50 (T47D): 2.47 µM (inactive)
- GI50 (HT-29): 2.65 µM (inactive)
- GI50 (K562): 3.17 µM (inactive)
- GI50 (UO-31): 2.27 µM (inactive)
- GI50 (UACC-62): 5.78 µM (inactive)

SMILES: CSc1ncnc2c1cnn2Cc1cn(COCC(O)CO)nn1 (stereo unspecified)
- GI50 (HOP-62): > 100 µM (inactive)
- GI50 (BT-549): > 100 µM (inactive)
- GI50 (MDA-N): > 100 µM (inactive)
- GI50 (IGROV-1): > 100 µM (inactive)
- GI50 (COLO 205): > 100 µM (inactive)
- GI50 (786-0): > 100 µM (inactive)
- GI50 (NCI-H522): 21.2 µM (inactive)
- GI50 (M14): > 100 µM (inactive)
- GI50 (LOX IMVI): > 100 µM (inactive)
- GI50 (HOP-92): > 100 µM (inactive)
- GI50 (NCI-H23): > 100 µM (inactive)
- GI50 (CAKI-1): > 100 µM (inactive)
- GI50 (OVCAR-5): > 100 µM (inactive)
- GI50 (KM12): > 100 µM (inactive)
- GI50 (SNB-19): > 100 µM (inactive)
- GI50 (HCT-15): > 100 µM
- GI50 (U-251): > 100 µM (inactive)
- GI50 (MCF7): > 100 µM (inactive)
- GI50 (MDA-MB-435): > 100 µM (inactive)
- GI50 (TK-10): > 100 µM (inactive)
- GI50 (DU-145): > 100 µM (inactive)
- GI50 (MOLT-4): > 100 µM (inactive)
- GI50 (ACHN): > 100 µM (inactive)
- GI50 (A549): > 100 µM (inactive)
- GI50 (OVCAR-3): > 100 µM (inactive)
- GI50 (EKVX): > 100 µM (inactive)
- GI50 (SK-MEL-5): > 100 µM (inactive)
- GI50 (MDA-MB-231): > 100 µM (inactive)
- GI50 (SF-539): > 100 µM (inactive)
- GI50 (NCI-H226): > 100 µM (inactive)
- GI50 (SK-MEL-2): > 100 µM (inactive)
- GI50 (HCT-116): > 100 µM (inactive)
- GI50 (CCRF-CEM): > 100 µM (inactive)
- GI50 (SF-295): > 100 µM (inactive)
- GI50 (SN12C): > 100 µM (inactive)
- GI50 (PC-3): > 100 µM (inactive)
- GI50 (RPMI-8226): > 100 µM (inactive)
- GI50 (A498): > 100 µM (inactive)
- GI50 (SW-620): > 100 µM (inactive)
- GI50 (OVCAR-8): > 100 µM (inactive)
- GI50 (NCI/ADR-RES): > 100 µM (inactive)
- GI50 (UACC-257): > 100 µM (inactive)
- GI50 (SK-MEL-28): > 100 µM (inactive)
- GI50 (SK-OV-3): > 100 µM (inactive)
- GI50 (SF-268): 22.8 µM (inactive)
- GI50 (OVCAR-4): > 100 µM (inactive)
- GI50 (SR): > 100 µM (inactive)
- GI50 (T47D): > 100 µM (inactive)
- GI50 (HL-60): > 100 µM (inactive)
- GI50 (HT-29): > 100 µM (inactive)
- GI50 (HCC 2998): > 100 µM (inactive)
- GI50 (UO-31): > 100 µM (inactive)
- GI50 (UACC-62): > 100 µM (inactive)
